Legend:
C57BL/6 mice = assay: Rodent model of acute liver failure: CCl4 dose finding (survival, serum transaminases); format: in vivo
Protocol: FIG. 1A-1C describes mortality and hepatic injury after injection of carbon tetrachloride (CCl4). FIG. 1A is a graph showing percent survival over four days among groups (n=10) of mice administered intraperitoneal injections of CCL4 at doses of 2 ml/kg (solid line), 3 ml/kg (dashed line), 4 ml/kg (diamond markers), or 4.5 ml/kg (circle markers). FIG. 1B is a graph displaying peak liver function test (LF) results, specifically, serum aspartate transaminase (AST) (dark bars) and alanine transaminase (ALT) (light bars) levels in mice (n=2) 24 hrs and 96 hrs after intraperitoneal injection of CCL4 at 4 ml/kg compared to baseline levels in uninjected animals (0 hrs).
Rodent models of Acute Liver Failure.
The large majority of animals in this group were transiently ill but rapidly regained vigor. […] A dose of 4 ml/kg would result in about 60% to 100% mortality among the animals over the course of three to seven days. Slight adjustments in the dose (i.e., 4.5 ml/kg) at this level would have obvious effects on mortality with all animals succumbing within 24-48 hours.
A dose of 4 ml/kg was eventually selected for the final model. Mortality with this dose was typically about 80% around five days and was preceded by a significant elevation in serum transaminases. AST and ALT levels peaked at approximately 5,000 on day one to two after injury (FIG. 1B).

CXCR4 receptor = conditions: mutated receptor (not named); cited from earlier work
[1] = test system: CD34+ HSCs / peripheral white blood cells; assay: HSC mobilization in rats, flow cytometric analysis of peripheral blood; format: in vivo; conditions: for peripheral CD34+ absolute count / total lymphocyte count: single dose; for average total WBC: single sc dose (plerixafor 2 mg/kg, G-CSF 300 μg/kg), n=3
Protocol: Rats (n=3 per treatment group) were administered a single dose of plerixafor (2 mg/kg), G-CSF (300 μg/kg) or both. In FIG. 2A, peripheral total white blood cell (WBC) count, total lymphocytes, and CD34^+ cells were measured in […] by FACS analysis at 1 hr and 6 hrs after injection. […] See Mozobil (plerixafor injection) Product Monograph 2009 (Genzyme Corporation, Cambridge, Mass.).
Mobilization of HSCs. For HSC mobilization, plerixafor and G-CSF were administered by subcutaneous injection at weight-based doses consistent with those that have proven effective in human clinical trials or as has been used previously by the present inventors (plerixafor, 2 mg/kg/dose; G-CSF 300 μg/kg/dose). Plerixafor and G-CSF were administered 12-hours following CCl4 injection, in treatment groups comprised of eight to ten animals. Control treatment groups were administered an injection with an equivalent volume of saline.
Flow Cytometric Analysis of Peripheral Blood. Following HSC mobilization, animals were sacrificed at either one or six hours post treatment and blood was collected. Leukocyte suspensions (1×10^6) of peripheral blood were analyzed for CD34, Thy-1 and c-Kit expression. Nonspecific antibody binding was blocked with mouse and donkey serum (Sigma) for 30 minutes. The cells were incubated with Alexa Fluor 647 conjugated mouse anti-rat CD34 (1:10) (Santa Cruz Biotechnology), fluorescein isothiocyanate (FITC)-conjugated mouse anti-rat CD90 (Thy-1, 1:100) (BD Pharmingen), and rabbit anti-rat c-Kit (1:100) (Santa Cruz Biotechnology) for 45 minutes at 4° C., followed by phycoerythrin (PE)-conjugated donkey anti-rabbit IgG (1:200) (eBioscience) for 30 minutes at 4° C. The CD34, Thy-1 and c-Kit positive cells were counted by flow cytometry using CELLQuest software (Becton-Dickinson).

[2] = test system: CD34+ stem cells in peripheral blood; conditions: pigs
Protocol: The dosage of plerixafor used in swine transplants was based on the experiments in rats. It is possible that the effective dosage of plerixafor will differ among species. The efficacy of plerixafor was tested in non-transplanted pigs and blood cell count and flow cytometric analysis were used to measure CD34^+ stem cells in peripheral blood.

CD34+ cells / HSCs = conditions: healthy volunteers; cited from earlier work
[3] = test system: human immunodeficiency virus (HIV); conditions: cited from earlier work
[4] = CCl4 4 ml/kg, day one to two after injury

ClC(Cl)(Cl)Cl [CCL4, carbon tetrachloride]
mortalities per ten animals (C57BL/6 mice; CCl4 2 ml/kg intraperitoneal, within first one to two days): one or two | mortality (C57BL/6 mice; CCl4 4 ml/kg, around five days): about 80% | peak serum ALT level (C57BL/6 mice; [4]): approximately 5,000 | peak serum AST level (C57BL/6 mice; [4]): approximately 5,000 | time within which all animals succumbed (C57BL/6 mice; CCl4 4.5 ml/kg): 24 to 48 h

c1cc(CN2CCCNCCNCCCNCC2)ccc1CN1CCCNCCNCCCNCC1 [plerixafor, 1,1′-[1,4-phenylenebis(methylene)]bis-1,4,8,11-tetraazacyclo-tetradecane]
affinity of mutated receptor relative to affinity in CXCR4 (CXCR4 receptor): ≤ 10 fold | increase in affinity after introduction of Glu at VII:06 and removal of Lys at VII:02 (CXCR4 receptor): 1000 fold | peripheral CD34+ absolute count ([1]; one hour): 333 cells/ml | total lymphocyte count ([1]; one hour): 4,400 | peripheral CD34+ absolute count ([1]; six hours): 135 cells/ml | total lymphocyte count ([1]; six hours): 4,800 | average total WBC ([1]; 1 hour): 6,100 | average total WBC ([1]; 6 hours): 7,300 | time of peak CD34+ cell levels ([2]; after subcutaneous injection): 3 h | difference in number of CD34+ cells between 1 mg/kg and 2 mg/kg ([2]; at 2, 3 and 6 hours after injection): no significant difference | absolute number of CD34+ cells per ml blood ([2]; subcutaneous injection, time-dependent): significantly increased | mobilization of HSCs to the periphery (CD34+ cells / HSCs): massive mobilization | anti-HIV efficacy in vivo [3]: not an effective anti-HIV agent

B1: G-CSF: granulocyte colony stimulating factor, stem cell mobilizer (protein, UniProt P09919 31-207, looked up)
Granulocyte …: TPLGPASSLPQSFLLKCLEQVRKIQGDGAALQEKLVSECATYKLCHPEELVLLGHSLGIPWAPLSSCPSQALQLAGCLSQLHSGLFLYQGLLQALEGISPELGPTLDTLQLDVADFATTIWQQMEELGMAPALQPTQGAMPAFASAFQRRAGGVLVASHLQSFLEVSYRVLRHLAQP
peripheral CD34+ absolute count ([1]; one hour): 216 cells/ml | total lymphocyte count ([1]; one hour): 2,000 | peripheral CD34+ absolute count ([1]; six hours): 238 cells/ml | total lymphocyte count ([1]; six hours): 4,100 | average total WBC ([1]; 1 hour): 3,300 | average total WBC ([1]; 6 hours): 7,800
